PubChem BioAssay AID588680 (Southern Research Specialized Biocontainment Screening …, 2011)
Active and inactive are the calls of the source.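 The calls were made as follows: active = inhibition of 30% or more at any tested concentration; inactive = the rest.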

biological target: M1-family alanyl aminopeptidase (PfM1AAP), Plasmodium falciparum 3D7; test: PfM1AAP enzyme inhibition, dose response, selectivity assay for PfM18AAP inhibitor project, biochemical, QFRET, H-Leu-NHMec substrate (AID 588680); details: recombinant PfM1AAP, H-Leu-NHMec fluorogenic cleavage

| IC50 | SMILES |
| --- | --- |
| 40 µM | CCOc1cccc(-c2nc(-c3ccc(O)c(O)c3)cs2)c1 |
| 41.2 µM | CC(C)(C)C(=O)OCc1nc(-c2ccc(O)c(O)c2)cs1 |
| 40 µM | Cc1nc(NCCc2ccc(O)c(O)c2)c2c3c(sc2n1)CCC3 |
| 19.9 µM | Oc1ccc(-c2csc(Cc3cc4ccccc4[nH]3)n2)cc1O |
| 37.1 µM | Cc1ccc(-c2nc(-c3ccc(O)c(O)c3)cs2)cc1 |
| 55.1 µM | Oc1ccc(CCNC(c2ccccc2)c2ccccc2)cc1O |
| 48.2 µM | O=c1ccc2cc(O)c(O)cc2o1 |
| 19.7 µM | CN(CCc1ccc(O)c(O)c1)c1ccnc2ccccc12 |
| 77 µM | Oc1ccc(CCN2CCc3ccccc3C2)cc1O |
| 35 µM | Oc1ccc(CCNc2c3c(nc4ccccc24)CCCC3)cc1O |
| 54.3 µM | Cc1c(-c2ccccc2)[nH]c(-c2ccc(O)c(O)c2)[n+]1O |
| 37.7 µM | O=C1OCCN1CCc1nc(-c2ccc(O)c(O)c2)cs1 |
| 40.3 µM | Nc1cc(C(=O)c2ccccc2)ccc1O |
| 34.6 µM | Oc1ccc(CCNc2ccc3ccccc3c2)cc1O |
| 76.7 µM | O=C1c2ccc3c4c(ccc(c24)C(=O)N1O)CC3 |
| 39.9 µM | O=S1(=O)c2ccccc2-c2cc(-c3nc(-c4ccc(O)c(O)c4)[nH]c3-c3ccccc3)ccc21 |
| 29.9 µM | Oc1ccc(CCNc2cccc3ccccc23)cc1O |
| 90.5 µM | O=c1cc(CN2CCN(Cc3ccccc3)CC2)c2ccc(O)c(O)c2o1 |
| 45.2 µM | CN(CCc1ccc(O)c(O)c1)c1ccncc1 |
| 42.2 µM | CCC(C)c1ccc(N)c(O)c1 (stereo not drawn) |
| 35.7 µM | Oc1ccc(CCNc2cncc3ccccc23)cc1O |

same assay, conditions: recombinant PfM1AAP, H-Leu-NHMec fluorogenic cleavage; at 50 µM (top of the series)

| inhibition | SMILES |
| --- | --- |
| inactive | O=C(O)CCCNc1c2ccccc2nc2ccccc12 |
| inactive | O=C(O)CCCCNc1c2ccccc2nc2ccccc12 |

same assay, conditions: recombinant PfM1AAP, H-Leu-NHMec fluorogenic cleavage; at 100 µM (top of the series)

| inhibition | SMILES |
| --- | --- |
| inactive | COc1ccc(-c2nc(-c3ccccc3)c(-c3ccccc3)[nH]2)cc1OC |
| inactive | CCC(C)C(=O)Nc1ccccc1O (stereo not drawn) |
| inactive | COc1ccc(CCN2CCN(C)CC2)cc1OC |
| inactive | COc1ccc(-c2csc(-c3ccccc3OC)n2)cc1OC |
| inactive | O=c1ccn(CCNc2c3ccccc3nc3ccccc23)cc1OCc1ccccc1 |
| inactive | COc1ccc(CC(=O)O)cc1OC |
| inactive | COc1cccc(-c2nc(-c3ccc(OC)c(OC)c3)cs2)c1 |
| inactive | COc1ccc(CCNc2ccc3ccccc3c2)cc1OC |
| inactive | COc1ccc(CCN(C)CCc2ccccc2)cc1OC |
| inactive | COc1ccc(CCNC2CCN(Cc3ccccc3)CC2)cc1OC |
| inactive | Oc1ccc(CCNc2c3ccccc3nc3ccccc23)cc1 |
| inactive | COc1cccc(CCNc2c3ccccc3nc3ccccc23)c1 |
| inactive | COc1ccc(CCCNc2c3ccccc3nc3ccccc23)cc1OC |
| inactive | COc1ccc(CCC(=O)O)cc1OC |
| inactive | COc1ccc(-c2csc(-c3ccccc3)n2)cc1OC |
| inactive | COc1ccc(CCNc2c3ccccc3nc3ccccc23)cc1 |
| inactive | COc1ccc(CNc2c3ccccc3nc3ccccc23)cc1OC |
| inactive | COc1ccc(CCN2CCc3ccccc3C2)cc1OC |

| inhibition | SMILES |
| --- | --- |
| inactive | O=C(c1ccco1)N1CCN(Cc2cc(=O)c(O)co2)CC1 |
| inactive | O=c1cc(CO)oc(CN2CCCCC2)c1O |
| inactive | O=C(c1ccco1)N1CCN(Cc2cc(=O)c(O)c[nH]2)CC1 |
| inactive | COc1ccc(CCNc2ccncc2)cc1OC |
| inactive | Oc1ccc(CNc2c3ccccc3nc3ccccc23)cc1O |
| inactive | COc1ccc(CCNc2cccc3ccccc23)cc1OC |
| inactive | COc1ccc(CCN(C)c2ccnc3ccccc23)cc1OC |
| inactive | COc1ccc(CCNC2CCN(C)CC2)cc1OC |
| inactive | NCCNc1c2ccccc2nc2ccccc12 |
| inactive | CCC(C)C(=O)Nc1ccccc1N (stereo not drawn) |
| inactive | COc1ccc(CCN(C)c2c3ccccc3nc3ccccc23)cc1OC |
| inactive | Cc1c(OCc2ccccc2)c(=O)ccn1CCNc1c2ccccc2nc2ccccc12 |
| inactive | COc1ccc(CCNc2c3ccccc3nc3ccccc23)cc1OC |
| inactive | COc1ccc(CCN(C)c2ccncc2)cc1OC |
| inactive | Cc1c(O)c(=O)ccn1CCNc1c2ccccc2nc2ccccc12 |
| inactive | COc1ccc(CCNc2ccnc3ccccc23)cc1OC |
| inactive | COc1ccc(CCNc2c3c(nc4ccccc24)CCCC3)cc1OC |
